Results as given in ChEMBL document CHEMBL4321839, “Structure-activity relationships (SAR) of triazine derivatives: Promising antimicrobial agents” (Eur J Med Chem, 2020).
In brackets after ≈: the same amount, converted by molar mass.

Key:
Staphylococcus aureus [1] = test: Antimicrobial activity against methicillin-resistant Staphylococcus aureus MW2 assessed as reduction in microbial growth after 18 hrs by broth microdilution method; type: functional; conditions: MW2, 18 h
Enterococcus faecium [2] = test: Antimicrobial activity against Enterococcus faecium ATCC E007 assessed as reduction in microbial growth after 18 hrs by broth microdilution method; type: functional; conditions: ATCC E007, 18 h
Staphylococcus aureus [3] = test: Antimicrobial activity against Staphylococcus aureus assessed as zone of inhibition at 1000 to 10000 ppm after 48 hrs; type: functional
Helicobacter pylori = test: Antimicrobial activity against Helicobacter pylori assessed as zone of inhibition; type: functional
Escherichia coli [4] = test: Antimicrobial activity against Escherichia coli after 24 hrs by agar well diffusion assay; type: functional
Staphylococcus aureus [5] = test: Antimicrobial activity against methicillin-resistant Staphylococcus aureus CCARM 3167 assessed as reduction in microbial growth by serial dilution method; type: functional
Staphylococcus aureus [6] = test: Antimicrobial activity against quinolone-resistant Staphylococcus aureus CCARM 3505 assessed as reduction in microbial growth by serial dilution method; type: functional
Staphylococcus aureus [7] = test: Antimicrobial activity against methicillin-resistant Staphylococcus aureus CCARM 3506 assessed as reduction in microbial growth by serial dilution method; type: functional
HepG2 = test: Cytotoxicity against human HepG2 cells; type: cell-based
Staphylococcus aureus [8] = test: Antimicrobial activity against quinolone-resistant Staphylococcus aureus CCARM 3519 assessed as reduction in microbial growth by serial dilution method; type: functional
Proteus mirabilis = test: Antimicrobial activity against Proteus mirabilis assessed as zone of inhibition after 18 hrs by disk diffusion method; type: functional
Escherichia coli [9] = test: Antimicrobial activity against Escherichia coli assessed as zone of inhibition after 18 hrs by disk diffusion method; type: functional
Bacillus cereus [10] = test: Antimicrobial activity against Bacillus cereus NCIM-2156 assessed as reduction in microbial growth after 24 hrs by CLSI based broth dilution method; type: functional; conditions: NCIM-2156, 24 h
Bacillus subtilis = test: Antimicrobial activity against Bacillus subtilis NCIM-2063 assessed as reduction in microbial growth after 24 hrs by CLSI based broth dilution method; type: functional; conditions: NCIM-2063, 24 h
Escherichia coli [11] = test: Antimicrobial activity against Escherichia coli NCIM-2065 assessed as reduction in microbial growth after 24 hrs by CLSI based broth dilution method; type: functional; conditions: NCIM-2065, 24 h
Staphylococcus aureus [12] = test: Antimicrobial activity against Staphylococcus aureus NCIM-2079 assessed as reduction in microbial growth after 24 hrs by CLSI based broth dilution method; type: functional; conditions: NCIM-2079, 24 h
Proteus vulgaris = test: Antimicrobial activity against Proteus vulgaris NCIM-2027 assessed as reduction in microbial growth after 24 hrs by CLSI based broth dilution method; type: functional; conditions: NCIM-2027, 24 h
Candida albicans = test: Antifungal activity against Candida albicans MTCC 183 assessed as reduction in microbial growth after 48 hrs by broth dilution method; type: functional; conditions: MTCC 183, 48 h
Bacillus cereus [13] = test: Antimicrobial activity against Bacillus cereus MTCC 430 assessed as reduction in microbial growth after 24 hrs by broth dilution method; type: functional; conditions: MTCC 430, 24 h
Pseudomonas aeruginosa [14] = test: Antimicrobial activity against Pseudomonas aeruginosa MTCC 741 assessed as reduction in microbial growth after 24 hrs by broth dilution method; type: functional; conditions: MTCC 741, 24 h
Aspergillus niger = test: Antifungal activity against Aspergillus niger MTCC 282 assessed as reduction in microbial growth after 48 hrs by broth dilution method; type: functional; conditions: MTCC 282, 48 h
Lacticaseibacillus casei = test: Antibacterial activity against Lactobacillus casei NCIM-2651 assessed as reduction in microbial growth incubated for 24 hrs by broth dilution method; type: functional; conditions: NCIM-2651, 24 h
Bacillus cereus [15] = test: Antibacterial activity against Bacillus cereus NCIM-2458 assessed as reduction in microbial growth incubated for 24 hrs by broth dilution method; type: functional; conditions: NCIM-2458, 24 h
Aspergillus clavatus = test: Antifungal activity against Aspergillus clavatus MTCC 1323 assessed as reduction in microbial growth after 48 hrs by broth dilution method; type: functional; conditions: MTCC 1323, 48 h
Pseudomonas aeruginosa [16] = test: Antimicrobial activity against Pseudomonas aeruginosa […] assessed as zone of inhibition at 10 mg/ml by Kirby-Bauer disk diffusion method; type: functional; conditions: read-out: IZ
Micrococcus luteus = test: Antimicrobial activity against Micrococcus luteus ATCC 10240 assessed as zone of inhibition at 10 mg/ml by Kirby-Bauer disk diffusion method; type: functional; conditions: read-out: IZ
Pseudomonas aeruginosa [17] = test: Antimicrobial activity against Pseudomonas aeruginosa MTCC 1688 assessed as reduction in microbial growth after 24 to 48 hrs by broth dilution method; type: functional
Escherichia coli [18] = test: Antimicrobial activity against Escherichia coli MTCC 443 assessed as reduction in microbial growth after 24 to 48 hrs by broth dilution method; type: functional
Staphylococcus aureus [19] = test: Antimicrobial activity against Staphylococcus aureus MTCC 96 assessed as reduction in microbial growth after 24 hrs by broth dilution method; type: functional; conditions: MTCC 96, 24 h
Pseudomonas aeruginosa [20] = test: Antimicrobial activity against multi drug-resistant Pseudomonas aeruginosa CCARM 2095 assessed as reduction in microbial growth incubated for 18 to 24 hrs by two-fold serial dilution method; type: functional
Staphylococcus aureus [21] = test: Antimicrobial activity against methicillin-resistant Staphylococcus aureus CCARM 3089 assessed as reduction in microbial growth incubated for 18 to 24 hrs by two-fold serial dilution method; type: functional
Pseudomonas aeruginosa [22] = test: Antimicrobial activity against multi drug-resistant Pseudomonas aeruginosa CCARM 2109 assessed as reduction in microbial growth incubated for 18 to 24 hrs by two-fold serial dilution method; type: functional
Staphylococcus aureus [23] = test: Antimicrobial activity against methicillin-resistant Staphylococcus aureus CCARM 3095 assessed as reduction in microbial growth incubated for 18 to 24 hrs by two-fold serial dilution method; type: functional
Staphylococcus aureus [24] = test: Antimicrobial activity against methicillin-resistant Staphylococcus aureus CCARM 3090 assessed as reduction in microbial growth incubated for 18 to 24 hrs by two-fold serial dilution method; type: functional
Enterococcus faecium [25] = test: Antimicrobial activity against vancomycin-resistant Enterococcus faecium ATCC 51559 assessed as reduction in microbial growth incubated for 18 to 24 hrs by two-fold serial dilution method; type: functional
Klebsiella pneumoniae = test: Antimicrobial activity against multi drug-resistant Klebsiella pneumoniae assessed as reduction in microbial growth by two-fold serial dilution method; type: functional
Escherichia coli [26] = test: Antimicrobial activity against Escherichia coli ATCC 25922 assessed as reduction in microbial growth after 24 to 48 hrs by microdilution susceptibility test; type: functional
Staphylococcus aureus [27] = test: Antimicrobial activity against methicillin-resistant Staphylococcus aureus clinical isolate MRSA1 assessed as reduction in microbial growth by two-fold serial dilution method; type: functional
Staphylococcus aureus [28] = test: Antimicrobial activity against Staphylococcus aureus […] assessed as reduction in microbial growth after 24 to 48 hrs by microdilution susceptibility test; type: functional
Escherichia coli [29] = test: Antimicrobial activity against multi drug-resistant Escherichia coli assessed as reduction in microbial growth after 24 to 48 hrs by microdilution susceptibility test; type: functional
Staphylococcus aureus [30] = test: Antimicrobial activity against methicillin-resistant Staphylococcus aureus assessed as reduction in microbial growth after 24 to 48 hrs by microdilution susceptibility test; type: functional
Staphylococcus aureus [31] = test: Antimicrobial activity methicillin-resistant against Staphylococcus aureus; type: functional

CC(C)(C)Nc1nc(NN)nc(NC(C)(C)C)n1
MIC (Staphylococcus aureus [1]): 8 µg/mL | MIC (Enterococcus faecium [2]): 8 µg/mL

Cc1c(C(=O)NNc2ccccc2)nnc2c3c(-c4ccccc4)c(-c4ccccc4)nnc3nn12
inhibition zone (IZ) (Staphylococcus aureus [3]): 4 mm

CC(=O)c1nnc2c3c(-c4ccccc4)c(-c4ccccc4)nnc3nn2c1C
inhibition zone (IZ) (Staphylococcus aureus [3]): 44 mm

Nc1nc(-n2c(-c3ccc([N+](=O)[O-])cc3)nc3ccccc3c2=O)nnc1-c1ccccc1
MIC (Helicobacter pylori): 25 µg/mL (≈ 57.2 µM)

Clc1nc2nc(n1)Oc1ccc3ccccc3c1Cc1c(ccc3ccccc13)Oc1nc(Cl)nc(n1)OCc1cccc(n1)CO2
MIC (Escherichia coli [4]): 50 µg/mL (≈ 75.5 µM)

NC1=NC(c2ccc3cc(OCc4ccc(Cl)cc4Cl)ccc3c2)N=C(N2CCOCC2)N1 (stereo not drawn)
MIC (Staphylococcus aureus [5]): 2.1 µM | MIC (Staphylococcus aureus [6]): 2.1 µM | MIC (Staphylococcus aureus [7]): 2.1 µM | IC50 (HepG2): 34.3 µM | MIC (Staphylococcus aureus [8]): 2.1 µM

O=C(CN/N=C/Cc1ccccn1)CSc1nnc2c3ccccc3n(CC(=O)N/N=C/c3ccccn3)c2n1
inhibition zone (IZ) (Proteus mirabilis): 24 mm | inhibition zone (IZ) (Escherichia coli [9]): 24 mm

CCOc1ccc(/C=N/NC(=O)Cn2c3ccccc3c3nnc(SCC(=O)CN/N=C/Cc4ccc(OCC)cc4)nc32)cc1
inhibition zone (IZ) (Proteus mirabilis): 22 mm | inhibition zone (IZ) (Escherichia coli [9]): 22 mm

O=C1CSC(c2ccc([N+](=O)[O-])cc2)N1c1nc(Nc2ccc([N+](=O)[O-])cc2)nc(Nc2ccc([N+](=O)[O-])cc2)n1 (stereo not drawn)
MIC (Bacillus cereus [10]): 1.95 to 15.6 µg/mL | MIC (Bacillus subtilis): 1.95 to 15.6 µg/mL | MIC (Escherichia coli [11]): 1.95 to 15.6 µg/mL | MIC (Staphylococcus aureus [12]): 1.95 to 15.6 µg/mL | MIC (Proteus vulgaris): 1.95 to 15.6 µg/mL

COc1nc(Sc2cccc(Cl)c2)nc(-c2ccc(C#N)cc2)n1
MIC (Candida albicans): 3.12 µg/mL | MIC (Bacillus cereus [13]): 6.25 µg/mL

COc1nc(Sc2cccc(F)c2)nc(-c2ccc(C#N)cc2)n1
MIC (Pseudomonas aeruginosa [14]): 3.12 µg/mL | MIC (Aspergillus niger): 3.12 µg/mL

Nc1nc(Nc2nc(-c3ccc(Cl)c(Cl)c3)cs2)nc(Sc2ccccc2)n1
MIC (Lacticaseibacillus casei): 3.12 µg/mL | MIC (Bacillus cereus [15]): 3.12 µg/mL

COc1nc(Sc2ccc(Cl)cc2)nc(-c2ccc(C#N)cc2)n1
MIC (Aspergillus clavatus): 3.12 µg/mL

Cc1cc(C)n(-c2nc(NCc3ccccc3)nc(N3CCCCC3)n2)n1
zone of inhibition at 10000 µg/mL (Pseudomonas aeruginosa [16]): 19 mm | zone of inhibition at 10000 µg/mL (Micrococcus luteus): 22 mm

O=C1CSC(c2ccccc2[N+](=O)[O-])N1c1nc(Nc2ccccc2[N+](=O)[O-])nc(Nc2ccccc2[N+](=O)[O-])n1 (stereo not drawn)
MIC (Bacillus cereus [10]): 1.95 to 15.6 µg/mL | MIC (Bacillus subtilis): 1.95 to 15.6 µg/mL | MIC (Escherichia coli [11]): 1.95 to 15.6 µg/mL | MIC (Staphylococcus aureus [12]): 1.95 to 15.6 µg/mL | MIC (Proteus vulgaris): 1.95 to 15.6 µg/mL

O=[N+]([O-])c1ccc(Nc2nc(Nc3ccc(S(=O)(=O)Nc4ncccn4)cc3)nc(N3CCCCC3)n2)cc1
MIC (Pseudomonas aeruginosa [17]): 50 µg/mL | MIC (Escherichia coli [18]): 25 µg/mL

COc1nc(Sc2ccc(F)cc2)nc(-c2ccc(C#N)cc2)n1
MIC (Staphylococcus aureus [19]): 3.12 µg/mL

CC1(C)c2ccccc2Oc2nc(Cl)nc(n2)OCc2cccc(n2)COc2nc(Cl)nc(n2)Oc2ccccc21
MIC (Escherichia coli [4]): 50 µg/mL (≈ 84.7 µM)

N=C(N)NCCCN(CCCNC(=N)N)c1nc(NCCC(c2ccccc2)c2ccccc2)nc(NCCC(c2ccccc2)c2ccccc2)n1
MIC (Pseudomonas aeruginosa [20]): 4 µM | MIC (Staphylococcus aureus [21]): 2 µM | MIC (Pseudomonas aeruginosa [22]): 4 µM | MIC (Staphylococcus aureus [23]): 2 µM | MIC (Staphylococcus aureus [24]): 2 µM | MIC (Enterococcus faecium [25]): 4 µM

Nc1nc(Nc2ccccc2)nc(Nc2nc(-c3ccc(Cl)c(Cl)c3)cs2)n1
MIC (Lacticaseibacillus casei): 3.12 µg/mL | MIC (Bacillus cereus [15]): 3.12 µg/mL

N=C(N)NCCCN(CCCNC(=N)N)c1nc(NCc2cccc3ccccc23)nc(NCc2cccc3ccccc23)n1
MIC (Pseudomonas aeruginosa [20]): 8 µM | MIC (Staphylococcus aureus [21]): 2 µM | MIC (Pseudomonas aeruginosa [22]): 8 µM | MIC (Staphylococcus aureus [23]): 2 µM | MIC (Staphylococcus aureus [24]): 2 µM | MIC (Enterococcus faecium [25]): 2 µM

CC1(C)S[C@@H]2[C@H](NC(=O)[C@H](N)c3ccccc3)C(=O)N2[C@H]1C(=O)O [AMPICILLIN]
MIC (Pseudomonas aeruginosa [17]): 100 µg/mL | MIC (Klebsiella pneumoniae): 12.5 µg/mL | MIC (Escherichia coli [26]): 25 µg/mL | MIC (Escherichia coli [18]): 100 µg/mL | MIC (Staphylococcus aureus [27]): 6.25 µg/mL | MIC (Staphylococcus aureus [28]): 12.5 µg/mL | MIC (Escherichia coli [29]): > 250 µg/mL | MIC (Staphylococcus aureus [30]): > 250 µg/mL

O=C(O)c1cn(C2CC2)c2cc(N3CCNCC3)c(F)cc2c1=O [CIPROFLOXACIN]
inhibition zone (IZ) (Proteus mirabilis): 22 mm | MIC (Staphylococcus aureus [31]): 4 µg/mL (≈ 12.1 µM)

CC[C@H](C)[C@H](NC(=O)CN)C(=O)NCC(=O)N[C@@H](C)C(=O)N[C@H](C(=O)N[C@@H](CC(C)C)C(=O)N[C@@H](CCCCN)C(=O)N[C@H](C(=O)N[C@@H](CC(C)C)C(=O)N[C@H](C(=O)N[C@H](C(=O)NCC(=O)N[C@@H](CC(C)C)C(=O)N1CCC[C@H]1C(=O)N[C@@H](C)C(=O)N[C@@H](CC(C)C)C(=O)N[C@H](C(=O)N[C@@H](CO)C(=O)N[C@@H](Cc1c[nH]c2ccccc12)C(=O)N[C@H](C(=O)N[C@@H](CCCCN)C(=O)N[C@@H](CCCNC(=N)N)C(=O)N[C@@H](CCCCN)C(=O)N[C@@H](CCCNC(=N)N)C(=O)N[C@@H](CCC(N)=O)C(=O)N[C@@H](CCC(N)=O)C(N)=O)[C@@H](C)CC)[C@@H](C)CC)[C@@H](C)O)[C@@H](C)O)C(C)C)C(C)C [MELITTIN]
MIC (Enterococcus faecium [25]): 2 µM
